Assay results: ChEMBL document CHEMBL3507680, “University of Dundee, Gates Library screen for HepG2 cell viability”

Experiment: Human HepG2 cell viability assay in 384 well format
Format: toxicity, cell-based
Design: dose 125 nL, time 70.5 hour; cytotoxicity at 70.5 h: concentration not given beside the values
Conditions: HepG2 cells, read-out: Inhibition

Row | Structure (SMILES) | cytotoxicity at 70.5 h
1 | Cc1ccc(CNCC2Cn3nnc(-c4cnn(C)c4)c3CO2)o1 (configuration not stated) | 15.6%
2 | COCCN1C(=O)CC(N2CCN(c3ccc(F)cc3)CC2)C1=O (configuration not stated) | 13.6%
3 | CCc1nnc2n1CCN(Cc1nc(-c3ccoc3)no1)C2 | -7.66%
4 | Cc1cccc(C(CNC(=O)NCc2cc[nH]n2)N2CCOCC2)c1 (configuration not stated) | -14.8%
5 | Cc1ccc(Cc2sc(NC(=O)C(C)S(C)(=O)=O)nc2C)cc1 (configuration not stated) | -3.98%
6 | Cc1cc(=O)[nH]c(-n2nc(C)c(CCC(=O)NCC(C)C)c2C)n1 | -4.48%
7 | CN1CCC(NC(=O)[C@H]2CC[C@@H]3[C@@H](CCN3c3ncccn3)O2)CC1 | -6.76%
8 | Cc1nc(S(=O)(=O)CCn2cccn2)n(C2CCCC2)c1C | 10.5%
9 | N#Cc1cccc(S(=O)(=O)NC2CCN(Cc3ccccc3)C2=O)c1 (configuration not stated) | -2.45%
10 | CC(=O)N1CCCN(C(=O)c2csc(-c3ccc(C)cc3C)n2)CC1 | -4.64%
11 | NC(Cc1nc(-c2ccccc2)no1)c1ccccc1 (configuration not stated) | -6.63%
12 | Cn1cc2c(n1)C(CNCc1ccco1)OCC2 (configuration not stated) | 19.8%
13 | CN(C)C(=O)CO[C@@H]1CC[C@H]2[C@H]1OCCN2c1ncccn1 | 4.77%
14 | CC(C)(C)N1CC(C(=O)NCc2cn3cccnc3n2)CC1=O (configuration not stated) | -5.98%
15 | CSc1ccccc1C(=O)NCc1cc2n(n1)CCCN(CC(C)C)C2 | 22.5%
16 | CNS(=O)(=O)c1cc(C(=O)N(C)Cc2sccc2C)c(C)o1 | -5.52%
17 | Cc1nnsc1C(=O)N1CC(c2nc3ccccc3[nH]2)C1 | -14.1%
18 | CC(C)CNC(=O)Nc1cccc(CN2CCOC2=O)c1 | -6.71%
19 | CCC(Nc1cccc(Oc2ccc(C#N)cc2)c1)C(N)=O (configuration not stated) | -4.69%
20 | Cc1cnn(CC2CCCN2C(=O)c2cccc3[nH]ncc23)c1 (configuration not stated) | 1.32%
21 | Cc1nnc(N2CCO[C@H]3[C@@H](OCc4ccccn4)CC[C@@H]32)s1 | -2.28%
22 | Cc1cnn(CC2CCCN2Cc2cn3ccsc3n2)c1 (configuration not stated) | -9.34%
23 | CCc1csc(NC(=O)Nc2c(C)n[nH]c2C)n1 | -4.31%

Row | Structure (SMILES) | cytotoxicity at 70.5 h
24 | Cc1nccn1C1CCCN(C(=O)CCc2nc(C(C)C)no2)C1 (configuration not stated) | -11.2%
25 | CCC(C)N(Cc1cccnc1)C(=O)c1ccc(OC)cc1O (configuration not stated) | -9.19%
26 | Cc1nn(C)c2c(=O)n(C)c(NCC3CCCO3)nc12 (configuration not stated) | -3.29%
27 | CC(C)c1nnc(CN2CCN(CC(O)c3ccccc3)CC2)o1 (configuration not stated) | -0.811%
28 | c1ccc(COCC2CNCc3nccn3C2)nc1 (configuration not stated) | 0.439%
29 | O=C(Cc1ccccn1)N1CCN(CC2CC2)c2ncccc2C1 | -4.27%
30 | C[C@@H]1CN(C(=O)c2cccn2C)C[C@]12CCN(c1ccsc1)C2=O | -13.8%
31 | CC(C)CN1CC[C@@H]2[C@@H]1CCN2C(=O)N1CCCC1 | -3.86%
32 | Cc1cc(CN(C)C(=O)NC2CCN(C3CC3)CC2)no1 | -3%
33 | Cc1ccc(NC(=O)N2CCOC(C(N)=O)C2)cc1C(F)(F)F (configuration not stated) | -4.03%
34 | Oc1ccccc1-c1n[nH]c(C2CCCO2)n1 (configuration not stated) | 28.5%
35 | OCCOCCN1CCCC1c1cccc(Cl)c1 (configuration not stated) | -3.17%
36 | CC(c1nc(C2CC2)no1)N1CCN(c2ccc(C#N)cn2)CC1 (configuration not stated) | -10.6%
37 | Cn1cccc1C(=O)NCc1cnc2n1CCN(c1ccccn1)C2 | -3.68%
38 | Cn1ccnc1C1CCN(C(=O)COCC(F)(F)C(F)F)CC1 | -14.1%
39 | c1ccc(CCc2n[nH]c(C3CCC3)n2)cc1 | -2.16%
40 | Cc1n[nH]c(C)c1C1COCCN1C(=O)c1n[nH]c2ccccc12 (configuration not stated) | 12.3%
41 | COC(=O)C(C)(C)NC(=O)C1CC(=O)N(CC2CC2)C1 (configuration not stated) | -6.45%
42 | O=C(CN(CC(O)c1ccc(F)cc1)C1CC1)NC(C1CC1)C1CC1 (configuration not stated) | -90.6%
43 | CC(=O)Nc1nc(C(=O)NC(C)c2ccc3c(c2)OCCO3)cs1 (configuration not stated) | -11.4%
44 | Cc1noc(C)c1CNC(=O)N(C)C1CCN(c2ccccc2)C1=O (configuration not stated) | -2.2%
45 | Cc1ccc(C(=O)N2CCc3ccc(=O)n(CCN(C)C)c3CC2)o1 | -4.04%
46 | NCC1CN(c2nc(-c3cccnc3)nc3c2CCNCC3)CCO1 (configuration not stated) | 26.4%

Row | Structure (SMILES) | cytotoxicity at 70.5 h
47 | O=C(c1ccoc1)N1CCc2ncnc(NCc3ccccn3)c2CC1 | 25.5%
48 | CN(C)[C@H]1C[C@@H](Cc2cc(-c3ccc(F)cc3)on2)C1(C)C | -0.292%
49 | Cc1cc(C)n(CC2CCCN2C(=O)CCCNc2ncccn2)n1 (configuration not stated) | -0.613%
50 | Cc1ccc(F)c(S(=O)(=O)Nc2cn(C)cc(Br)c2=O)c1 | -1.44%
51 | Cc1cc(-c2cnn(CCNC(=O)C3CCCO3)c2C2CC2)on1 (configuration not stated) | -9.36%
52 | COc1ccc2c(c1)CCCN(C(C)C(=O)NC(C)C)C2 (configuration not stated) | -15.7%
53 | CCc1nc(C2CCCN2C(=O)c2ncoc2CC)no1 (configuration not stated) | -5.48%
54 | c1cnc(-c2nn3c(CN4CCCCCC4)nnc3s2)cn1 | -8.05%
55 | O=C(O)[C@]12CCCN(Cc3ccccn3)[C@@H]1CCN(c1cnccn1)C2 | -3.65%
56 | CSc1nccc(N2C[C@@H]3CC[C@H](C2)N(CC2CCC2)C3=O)n1 | 13%
57 | CN(Cc1ccco1)C(=O)Nc1cccnc1N1CCCC1 | -3.81%
58 | COCC(Nc1ncnc2sc(C)c(C)c12)c1ccnn1C (configuration not stated) | -4.15%
59 | COc1ncc(-c2cc(NCCN(C)C)nc3[nH]ccc23)c(OC)n1 | 15.3%
60 | Cc1ncsc1C(=O)Nc1cccc(OCC(F)F)n1 | -8.57%
61 | COCCC(=O)N1CC[C@@H](N2CCOCC2)[C@@H]1Cc1ccccc1 | -8.94%
62 | COCc1cn(C2CCN(CCC(C)c3ccccc3)CC2)nn1 (configuration not stated) | -12.1%
63 | Cn1c(N)c2c(=O)n(C)c(-c3ccc(Cl)cc3)cc2c(C#N)c1=O | -8.81%
64 | CCC(=O)N1CCCC(c2cc(Nc3ncccn3)nc(C)n2)C1 (configuration not stated) | -5.83%
65 | CN(C(=O)C1CCN(Cc2cnc3ccccn23)CC1)c1ccccc1 | -7.69%
66 | Cn1cc(CN2C[C@H]3CCC[C@@]3(COc3cccnc3)C2)cn1 | -2.32%
67 | CCn1nnc2c1C(COC)CN(Cc1ccsc1)C2 (configuration not stated) | -0.304%
68 | O=C(c1cnccn1)N1CCN(CC2CC2)c2ncccc2C1 | 5.88%
69 | CN1CCNC(=O)C12CCN(Cc1ccco1)CC2 | -8.79%

Row | Structure (SMILES) | cytotoxicity at 70.5 h
70 | COC(=O)CNC(=O)c1ccn(-c2ccc(Cl)c(Cl)c2)n1 | -2.3%
71 | Cc1noc(C)c1CNCC1CNc2ccnn2C1 (configuration not stated) | -7.43%
72 | O=C(CCN1CCc2ccccc21)N1C[C@@H](O)[C@H](N2CCCC2)C1 | -7.06%
73 | Cc1nc2cc(C(=O)N3C[C@@H](NS(C)(=O)=O)[C@H](C(C)C)C3)ccc2[nH]1 | 18.5%
74 | CN(Cc1n[nH]c2c1CCCC2)C(=O)c1cccc(CCC(C)(C)O)c1 | -4.47%
75 | COCC1Cn2nnc(-c3cnn(C)c3)c2CN1Cc1ccc(C)s1 (configuration not stated) | 4.51%
76 | CNc1nccnc1C1CN(Cc2ccc(OCC(=O)O)cc2)CCO1 (configuration not stated) | -5.37%
77 | CCC(C(=O)N1CCN(C(=O)N2CCOCC2)CC1)n1cccn1 (configuration not stated) | -5.93%
78 | CC(C)n1cc(CN2CCCN(C(=O)c3cccnc3O)CC2)cn1 | -2.94%
79 | CC(=O)N1CCCC(c2ccc(Cc3ccccc3)cn2)C1 (configuration not stated) | 20%
80 | CCCC(=O)Nc1sc(C(=O)OCC)c(C)c1C#N | -2.39%
81 | COCCN1CCC(CNC(=O)Nc2ccc(SC(F)(F)F)cc2)C1 (configuration not stated) | -1.27%
82 | CC1Cc2ccccc2N1Cc1occc1C(=O)NCC(=O)N(C)C (configuration not stated) | -1.83%
83 | COc1cccc(C(C)N2CCN(S(C)(=O)=O)CC2)c1 (configuration not stated) | 28.7%
84 | Cc1n[nH]c(C)c1CNCC(O)c1ccc(F)c(F)c1 (configuration not stated) | -3.32%
85 | O=C(c1ccc2[nH]c(=O)[nH]c2c1)N1CCC(Nc2cccnn2)CC1 | -9.22%
86 | Fc1ccc(CN2CCn3cc(Cn4cccn4)nc3C2)cc1 | -20.8%
87 | CC(=O)N1N=C(c2ccco2)OC1C(=O)NCCc1ccc(O)cc1 (configuration not stated) | -2.51%
88 | CN(C)C(=O)[C@@H]1CCO[C@@H]2CCN(CCc3ccccc3)C[C@@H]21 | 1.43%
89 | Cc1ccsc1C1CCCCCN1Cc1cn(C)nc1C (configuration not stated) | -13.5%
90 | Cc1occc1C(=O)N1CCO[C@H]2[C@H](Oc3cccnc3)CC[C@@H]21 | 14.6%
91 | COCc1nn(C(C)C)c2c1CCN(Cc1ccccn1)C2 | -3.77%
92 | COc1ccc(-c2noc(CN3CC(n4cc(C)cn4)C3)n2)cc1 | -11.2%

Row | Structure (SMILES) | cytotoxicity at 70.5 h
93 | Cc1ccc(-n2c(COCC(=O)O)nc3c(C)cccc32)nc1 | -4.5%
94 | Cc1nc(-c2noc3ccc(C(=O)NCCN4CCOCC4)cc23)co1 | 12.2%
95 | c1cncc(OCc2noc3c2CN(Cc2ccsc2)CC3)c1 | 15.9%
96 | CCc1ccc(C(CNC(=O)c2c(C)noc2C)N(C)C)cc1 (configuration not stated) | 5.58%
97 | O=C(NCCS(=O)(=O)N1CCN(c2ncccn2)CC1)c1ccccc1 | -7.9%
98 | CN(C)C(=O)N1Cc2nnn(CC3CC3)c2C(COCC2CC2)C1 (configuration not stated) | -6.92%
99 | O=C(O)c1ccc(N2CCC(Oc3ccc(Cl)cc3)CC2)nc1 | -12.3%
100 | CNC(=O)c1cn2cc(-c3cccc(Cl)c3)n(CC=C(C)C)c(=O)c2n1 | -5.75%
101 | O=C(c1cccnc1N1CCOC(c2ccc(F)cc2)C1)N1CCCC1 (configuration not stated) | -14.7%
102 | COc1ccc2[nH]cc(C(=O)N3CC[C@H](CO)[C@@H](O)C3)c(=O)c2c1 | -6.72%
103 | NC(=O)C1CCN(C(=O)NCc2csc(Br)c2)CC1 | -7.32%
104 | O=C1NC[C@H]2CN(Cc3ccnc4ccccc34)CCN12 | -6.05%
105 | O=C1N(c2ccccc2)C[C@H]2CN(C3CCC3)CCN12 | -3.05%
106 | O=c1[nH]c(CN2CCCC(Cn3cncn3)C2)nc2ccccc12 (configuration not stated) | -4.42%
107 | CC(C)(C)c1noc(CCCC(=O)NCC2CCS(=O)(=O)C2)n1 (configuration not stated) | 0.495%
108 | COCc1nc(C(=O)NS(=O)(=O)c2ccc(Cl)cc2F)cs1 | -3.46%
109 | CCCc1nc(C(C)(C)NC(=O)C2CC(=O)N(C3CCCC3)C2)no1 (configuration not stated) | -11.9%
110 | CNS(=O)(=O)c1ccc(CN2CCN(Cc3ncccc3C)CC2)cc1 | -15.3%
111 | CC(C)N(CC(N)=O)Cc1c(Cl)ccc2cccnc12 | -8.03%
112 | Cc1n[nH]c(C(=O)NCc2ccnc(OCC(F)(F)F)c2)c1Br | -4.39%
